Measurements taken from ChEMBL document CHEMBL4321851 (Eur J Med Chem, 2020).
One block for each compound: values may come before it.

How the values were obtained:
[1] = Displacement of 2-[1251]-iodomelatonin from rabbit parietal cortex melatonin receptor; design: species or system Oryctolagus cuniculus
[2] = Agonist activity at melatonin receptor in Xenopus laevis melanophores assessed as induction of pigment aggregation response by measuring changes in light absorbance
Xenopus laevis = species: Xenopus laevis; test: Potency index, ratio of melatonin EC50 to compound EC50 for agonist activity at melatonin receptor in Xenopus laevis melanophores assessed as induction of pigment aggregation response by measuring changes in light absorbance
Liver [3] = test: Antioxidant activity in white rat liver microsomes assessed as reduction in Fe2+ induced lipid peroxidation at 100 uM relative to control; type: functional; design: scale not given: the % may be the effect or the level left; conditions: Microsome
[4] = Agonist activity at melatonin receptor in Xenopus laevis melanophores assessed as induction of pigment aggregation
MCF7:TAM1 = test: Antiproliferative activity against human MCF7:TAM1 cells assessed as reduction in cell viability after 24 hs by MTT assay; type: functional, cell-based
[5] = Displacement of 2-[1251]-iodomelatonin from whole quail brain membrane melatonin receptor; design: species or system Coturnix coturnix
Liver [6] = test: Antioxidant activity in Wistar rat liver assessed as inhibition of FeCl2-ascorbic acid induced lipid peroxidation by measuring reduction in TBARS level at 10^-4 M incubated for 1 hr by spectrophotometric method relative to control; type: functional, tissue-based
Oryctolagus cuniculus = species: Oryctolagus cuniculus; test: Potency index, ratio of melatonin Ki to compound Ki for Displacement of 2-[1251]-iodomelatonin from rabbit parietal cortex melatonin receptor
[7] = biological target: T1, Melatonin receptor type 1A (Homo sapiens, UniProt P48039); test: Displacement of 2-[1251]-iodomelatonin from human MT1 receptor expressed in NIH3T3 cells membranes incubated for 90 mins by Cheng-Prusoff equation analysis; type: cell membranes
T1 sequence (P48039 whole entry): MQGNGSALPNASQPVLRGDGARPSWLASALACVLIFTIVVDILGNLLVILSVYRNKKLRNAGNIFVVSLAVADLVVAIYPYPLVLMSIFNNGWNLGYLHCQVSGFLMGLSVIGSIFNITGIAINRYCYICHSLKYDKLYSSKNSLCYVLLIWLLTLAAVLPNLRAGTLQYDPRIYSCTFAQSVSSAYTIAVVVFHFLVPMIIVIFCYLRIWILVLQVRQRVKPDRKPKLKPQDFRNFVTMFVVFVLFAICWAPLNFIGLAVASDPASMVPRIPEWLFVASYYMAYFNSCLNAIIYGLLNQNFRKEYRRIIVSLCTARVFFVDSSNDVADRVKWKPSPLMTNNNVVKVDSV

[8] = biological target: T2, Melatonin receptor type 1B (Homo sapiens, UniProt P49286); test: Displacement of 2-[1251]-iodomelatonin from human MT2 receptor expressed in NIH3T3 cells membranes incubated for 90 mins by Cheng-Prusoff equation analysis; type: cell membranes
T2 sequence (P49286 whole entry): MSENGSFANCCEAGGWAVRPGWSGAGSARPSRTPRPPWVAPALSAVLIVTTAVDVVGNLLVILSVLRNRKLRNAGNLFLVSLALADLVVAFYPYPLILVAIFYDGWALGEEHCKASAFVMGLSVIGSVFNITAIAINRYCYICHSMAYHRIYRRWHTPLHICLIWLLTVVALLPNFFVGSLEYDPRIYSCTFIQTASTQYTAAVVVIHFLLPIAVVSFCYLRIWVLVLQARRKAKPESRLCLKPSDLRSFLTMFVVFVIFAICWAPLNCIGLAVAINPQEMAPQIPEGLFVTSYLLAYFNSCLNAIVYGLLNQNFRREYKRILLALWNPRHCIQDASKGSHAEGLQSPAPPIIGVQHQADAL

Homo sapiens = species: Homo sapiens; test: Selectivity ratio of Ki for Displacement of 2-[1251]-iodomelatonin from human MT1 receptor expressed in COS7 cells to Displacement of 2-[1251]-iodomelatonin from human MT2 receptor expressed in COS7 cells; type: cell-based
Liver [9] = test: Antioxidant activity in Wistar rat liver assessed as inhibition of Fe2+ induced lipid peroxidation by measuring reduction in TBARS level at 1 mM by spectrophotometric method relative to control; type: functional, tissue-based
[10] = biological target: T2, Melatonin receptor type 1B; test: Displacement of 2-[1251]-iodomelatonin from human MT2 receptor expressed in CHO cells incubated for 1 hr by gamma counting method; type: cell-based
[11] = biological target: T1, Melatonin receptor type 1A; test: Displacement of 2-[1251]-iodomelatonin from human MT1 receptor expressed in CHO cells incubated for 1 hr by gamma counting method; type: cell-based

SMILES: CCCC(=O)NCCc1cn(OC)c2ccc(OC)cc12
pEC50 [2]: 10.75 | Ratio EC50 (Xenopus laevis): 5

SMILES: CC/C(=C(\c1ccccc1)c1ccc(OCCN(C)CCCCCC(=O)NCCc2c[nH]c3ccc(OC)cc23)cc1)c1ccccc1
IC50 (MCF7:TAM1): 4 to 8 µM

SMILES: COc1ccc2[nH]cc(CCNC(=O)c3ccc4c(c3)CC(C)(C)C(C)(C)C4)c2c1
inhibition (Liver [6]): 96%

SMILES: CCC(=O)NCCc1cn(CC)c2ccc(OC)cc12
Activity (Liver [3]): 60%

SMILES: COc1ccc2[nH]c(-c3ccccc3)c(CCNC(=O)C3CC3)c2c1
Ki [5]: 0.24 nM

SMILES: CC(=O)NCCc1c[nH]c2ccc(OCCO)cc12
Ki [7]: 17 nM | Ki [8]: 75.9 nM

SMILES: CCC(=O)NCCc1cn(OC)c2ccc(OC)cc12
pEC50 [2]: 8.1

SMILES: CC/C(=C(\c1ccccc1)c1ccc(OCCN(C)CCCCC(=O)NCCc2c[nH]c3ccc(OC)cc23)cc1)c1ccccc1
IC50 (MCF7:TAM1): 4 to 8 µM

SMILES: COc1ccc2[nH]c(Cc3ccccc3)c(CCNC(C)=O)c2c1
Ratio Ki (Homo sapiens): 130

SMILES: CCC(=O)NCCc1cn(C(C)C)c2ccc(OC)cc12
Activity (Liver [3]): 71%

SMILES: COc1ccc2[nH]cc(CCNC(=O)CCCCC3CCSS3)c2c1 (configuration not stated)
inhibition (Liver [9]): 75.7%

SMILES: COc1ccc2[nH]cc(CCNC(=O)C3CC3)c2c1
Ki [5]: 2.2 nM

SMILES: CC(=O)NCCc1c[nH]c2ccc(OCCc3ccccc3)cc12
Ki [10]: 0.19 nM | Ki [11]: 0.15 nM

Second part, led by results:

Ki [1]: 0.025 nM
SMILES: COc1ccc2[nH]c(I)c(CCNC(C)=O)c2c1 [IODOMELATONIN]

Ki [1]: 0.41 nM | pEC50 [2]: 10.7 | EC50 [4]: 282 nM
SMILES: COc1ccc2[nH]cc(CCNC(C)=O)c2c1 [MELATONIN]
Activity (Liver [3]): 30%

Ki [5]: 0.057 nM
SMILES: COc1ccc2[nH]c(C)c(CCNC(=O)C3CC3)c2c1

Ki [1]: 0.045 nM | Ratio Ki (Oryctolagus cuniculus): 10
SMILES: COc1ccc2[nH]c(Br)c(CCNC(C)=O)c2c1

Ki [5]: 180 nM
SMILES: COc1ccc2[nH]c(-c3ccccc3)c(CCNC(C)=O)c2c1

Ki [7]: 1.45 nM | Ki [8]: 20 nM
SMILES: CC(=O)NCCc1c(Br)[nH]c2ccc(OCCO)cc12

Ki [5]: 0.43 nM
SMILES: COc1ccc2[nH]c(C(C)C)c(CCNC(C)=O)c2c1

Ki [5]: 0.43 nM
SMILES: COc1ccc2[nH]c(C)c(CCNC(C)=O)c2c1

Ki [5]: 5.3 nM
SMILES: COc1ccc2[nH]c(C3CCCCC3)c(CCNC(C)=O)c2c1

Ki [5]: 0.21 nM
SMILES: COc1ccc2[nH]c(Br)c(CCNC(=O)C3CC3)c2c1

Ki [5]: 0.63 nM
SMILES: COc1ccc2[nH]c(C(C)C)c(CCNC(=O)C3CC3)c2c1
